Data reported in ChEMBL document CHEMBL4311964, “Potent combretastatin A-4 analogs containing 1,2,4-triazole: Synthesis, antiproliferative, anti-tubulin activity, and docking study” (Eur J Med Chem, 2019).

Test system: HepG2
Experiment: Cell cycle arrest in human HepG2 cells assessed as accumulation at pre-G1 phase at IC50 concentration by DNase/propidium iodide staining based flow cytometry analysis (reference value: 1.59 %)
Format: functional
Settings: not given

Structure (SMILES)	Activity
COc1ccc(-n2nc(C(=O)Nc3ccc(F)c(F)c3F)nc2-c2cc(OC)c(OC)c(OC)c2)cc1Cl	31.04%
COc1ccccc1NC(=O)c1nc(-c2cc(OC)c(OC)c(OC)c2)n(-c2ccc(F)c(Cl)c2)n1	19.22%

Test system: HepG2
Experiment: Cell cycle arrest in human HepG2 cells assessed as accumulation at G2/M phase at IC50 concentration by DNase/propidium iodide staining based flow cytometry analysis (reference value: 10.06 %)
Format: functional
Settings: not given

Structure (SMILES)	Activity
COc1ccc(-n2nc(C(=O)Nc3ccc(F)c(F)c3F)nc2-c2cc(OC)c(OC)c(OC)c2)cc1Cl	55.08%
COc1ccccc1NC(=O)c1nc(-c2cc(OC)c(OC)c(OC)c2)n(-c2ccc(F)c(Cl)c2)n1	40.56%

Molecular target: Tubulin (Sus scrofa, UniProt P02554+P02550)
Experiment: Inhibition of porcine brain tubulin polymerization assessed as decrease in fluorescence intensity measured every 60 sec for 90 mins in presence of GTP by DAPI staining based fluorescence assay
Settings: not given

IC50	Structure (SMILES)
0.76 µM	COc1ccc(-n2nc(C(=O)Nc3ccc(F)c(F)c3F)nc2-c2cc(OC)c(OC)c(OC)c2)cc1Cl
0.7 µM	COc1ccc(-n2nc(C(=O)Nc3ccc(F)c(Cl)c3)nc2-c2cc(OC)c(OC)c(OC)c2)cc1Cl
1.03 µM	COc1ccccc1NC(=O)c1nc(-c2cc(OC)c(OC)c(OC)c2)n(-c2ccc(F)c(Cl)c2)n1

Test system: MCF7
Experiment: Antiproliferative activity against human MCF7 cells assessed as cell growth inhibition measured after 48 hrs by MTT assay
Format: functional, cell-based
Settings: MCF7, 48 h

Structure (SMILES)	IC50
COc1cc(-c2nc(C(=O)Nc3ccccc3F)nn2-c2ccc(F)c(Cl)c2)cc(OC)c1OC	0.19 µM
COc1cc(-c2nc(C(=O)Nc3ccc(F)c(F)c3F)nn2-c2ccc(F)c(Cl)c2)cc(OC)c1OC	0.14 µM
COc1cc(-c2nc(C(=O)Nc3cc(F)cc(F)c3)nn2-c2ccc(F)c(Cl)c2)cc(OC)c1OC	4.91 µM
COc1ccc(-n2nc(C(=O)Nc3ccc(F)c(F)c3F)nc2-c2cc(OC)c(OC)c(OC)c2)cc1Cl	2.1 µM

Next, values leading:

IC50	Structure (SMILES)
0.31 µM	COc1cc(-c2nc(C(=O)Nc3ccc(OC(F)(F)F)cc3)nn2-c2ccc(F)c(Cl)c2)cc(OC)c1OC
0.52 µM	CCOc1ccc(NC(=O)c2nc(-c3cc(OC)c(OC)c(OC)c3)n(-c3ccc(F)c(Cl)c3)n2)cc1
1.01 µM	COc1ccc(NC(=O)c2nc(-c3cc(OC)c(OC)c(OC)c3)n(-c3ccc(F)c(Cl)c3)n2)cc1Cl
0.03 µM	COc1ccc(-n2nc(C(=O)Nc3ccc(F)c(Cl)c3)nc2-c2cc(OC)c(OC)c(OC)c2)cc1Cl
1.51 µM	COc1ccccc1NC(=O)c1nc(-c2cc(OC)c(OC)c(OC)c2)n(-c2ccc(F)c(Cl)c2)n1

Test system: HepG2
Experiment: Induction of apoptosis in human HepG2 cells assessed as viable cells at IC50 concentration by annexinV-FITC/propidium iodide staining based flow cytometry (reference value: 98.41 %)
Format: functional
Settings: not given

Structure (SMILES)	Activity
COc1ccc(-n2nc(C(=O)Nc3ccc(F)c(F)c3F)nc2-c2cc(OC)c(OC)c(OC)c2)cc1Cl	68.96%
COc1ccccc1NC(=O)c1nc(-c2cc(OC)c(OC)c(OC)c2)n(-c2ccc(F)c(Cl)c2)n1	80.78%

Molecular target: Tubulin beta (Homo sapiens) (UniProt P68371+Q9H4B7+Q13509+P04350+Q3ZCM7+P07437+Q13885+Q9BVA1+Q9BUF5+A6NNZ2)
Experiment: Inhibition of tubulin beta polymerization in human HepG2 cells at IC50 using TMB substrate preincubated for 2 hrs followed by substrate addition measured after 15 to 20 mins in presence of GTP by ELISA relative to control
Format: cell-based
Settings: not given

inhibition	Structure (SMILES)
82%	COc1ccc(-n2nc(C(=O)Nc3ccc(F)c(F)c3F)nc2-c2cc(OC)c(OC)c(OC)c2)cc1Cl
73%	COc1ccc(-n2nc(C(=O)Nc3ccc(F)c(Cl)c3)nc2-c2cc(OC)c(OC)c(OC)c2)cc1Cl
62%	COc1ccccc1NC(=O)c1nc(-c2cc(OC)c(OC)c(OC)c2)n(-c2ccc(F)c(Cl)c2)n1

Test system: HepG2
Experiment: Induction of apoptosis in human HepG2 cells assessed as late apoptotic cells at IC50 concentration by annexinV-FITC/propidium iodide staining based flow cytometry (reference value: 0.38 %)
Format: functional
Settings: not given

Structure (SMILES)	Activity
COc1ccc(-n2nc(C(=O)Nc3ccc(F)c(F)c3F)nc2-c2cc(OC)c(OC)c(OC)c2)cc1Cl	22.2%
COc1ccccc1NC(=O)c1nc(-c2cc(OC)c(OC)c(OC)c2)n(-c2ccc(F)c(Cl)c2)n1	11.32%

Test system: HepG2
Experiment: Cell cycle arrest in human HepG2 cells assessed as accumulation at G0/G1 phase at IC50 concentration by DNase/propidium iodide staining based flow cytometry analysis (reference value: 57.43 %)
Format: functional
Settings: not given

Structure (SMILES)	Activity
COc1ccc(-n2nc(C(=O)Nc3ccc(F)c(F)c3F)nc2-c2cc(OC)c(OC)c(OC)c2)cc1Cl	26.31%
COc1ccccc1NC(=O)c1nc(-c2cc(OC)c(OC)c(OC)c2)n(-c2ccc(F)c(Cl)c2)n1	34.77%

Test system: HepG2
Experiment: Induction of apoptosis in human HepG2 cells assessed as necrotic cells at IC50 concentration by annexinV-FITC/propidium iodide staining based flow cytometry (reference value: […])
Format: functional
Settings: not given

Structure (SMILES)	Activity
COc1ccc(-n2nc(C(=O)Nc3ccc(F)c(F)c3F)nc2-c2cc(OC)c(OC)c(OC)c2)cc1Cl	2.78%
COc1ccccc1NC(=O)c1nc(-c2cc(OC)c(OC)c(OC)c2)n(-c2ccc(F)c(Cl)c2)n1	2.66%

Test system: HepG2
Experiment: Induction of apoptosis in human HepG2 cells assessed as early apoptotic cells at IC50 concentration by annexinV-FITC/propidium iodide staining based flow cytometry (reference value: 0.69 %)
Format: functional
Settings: not given

Structure (SMILES)	Activity
COc1ccc(-n2nc(C(=O)Nc3ccc(F)c(F)c3F)nc2-c2cc(OC)c(OC)c(OC)c2)cc1Cl	6.06%
COc1ccccc1NC(=O)c1nc(-c2cc(OC)c(OC)c(OC)c2)n(-c2ccc(F)c(Cl)c2)n1	5.24%

Molecular target: Tubulin (Bos taurus, UniProt Q6B856+Q862L2+Q862F3)
Experiment: Inhibition of [3H] colchicine binding to bovine brain tubulin incubated for 30 mins by scintillation proximity assay
Settings: not given

IC50	Kd	Ki	Structure (SMILES)
2.11 µM	0.32 µM	0.15 µM	COc1ccc(-n2nc(C(=O)Nc3ccc(F)c(Cl)c3)nc2-c2cc(OC)c(OC)c(OC)c2)cc1Cl
3.58 µM	0.54 µM	0.26 µM	COc1ccccc1NC(=O)c1nc(-c2cc(OC)c(OC)c(OC)c2)n(-c2ccc(F)c(Cl)c2)n1

Test system: HL-60
Experiment: Antiproliferative activity against human HL60 cells assessed as cell growth inhibition measured after 48 hrs by MTT assay
Format: functional, cell-based
Settings: HL-60, 48 h

Structure (SMILES)	IC50
COc1cc(-c2nc(C(=O)Nc3ccccc3F)nn2-c2ccc(F)c(Cl)c2)cc(OC)c1OC	0.01 µM
COc1cc(-c2nc(C(=O)Nc3ccc(F)c(F)c3F)nn2-c2ccc(F)c(Cl)c2)cc(OC)c1OC	1.32 µM
COc1cc(-c2nc(C(=O)Nc3cc(F)cc(F)c3)nn2-c2ccc(F)c(Cl)c2)cc(OC)c1OC	3.75 µM
COc1ccc(-n2nc(C(=O)Nc3ccc(F)c(F)c3F)nc2-c2cc(OC)c(OC)c(OC)c2)cc1Cl	2.66 µM

Other lines, results leading:

IC50	Structure (SMILES)
0.16 µM	COc1cc(-c2nc(C(=O)Nc3ccc(OC(F)(F)F)cc3)nn2-c2ccc(F)c(Cl)c2)cc(OC)c1OC
0.6 µM	CCOc1ccc(NC(=O)c2nc(-c3cc(OC)c(OC)c(OC)c3)n(-c3ccc(F)c(Cl)c3)n2)cc1
0.7 µM	COc1ccc(NC(=O)c2nc(-c3cc(OC)c(OC)c(OC)c3)n(-c3ccc(F)c(Cl)c3)n2)cc1Cl
0.23 µM	COc1ccc(-n2nc(C(=O)Nc3ccc(F)c(Cl)c3)nc2-c2cc(OC)c(OC)c(OC)c2)cc1Cl
0.004 µM	COc1ccccc1NC(=O)c1nc(-c2cc(OC)c(OC)c(OC)c2)n(-c2ccc(F)c(Cl)c2)n1

Test system: HepG2
Experiment: Cell cycle arrest in human HepG2 cells assessed as accumulation at S phase at IC50 concentration by DNase/propidium iodide staining based flow cytometry analysis (reference value: 32.51 %)
Format: functional
Settings: not given

Structure (SMILES)	Activity
COc1ccc(-n2nc(C(=O)Nc3ccc(F)c(F)c3F)nc2-c2cc(OC)c(OC)c(OC)c2)cc1Cl	18.61%
COc1ccccc1NC(=O)c1nc(-c2cc(OC)c(OC)c(OC)c2)n(-c2ccc(F)c(Cl)c2)n1	24.67%

Test system: HepG2
Experiment: Antiproliferative activity against human HepG2 cells assessed as cell growth inhibition measured after 48 hrs by MTT assay
Format: functional, cell-based
Settings: HepG2, 48 h

Structure (SMILES)	IC50
COc1cc(-c2nc(C(=O)Nc3ccccc3F)nn2-c2ccc(F)c(Cl)c2)cc(OC)c1OC	12.7 µM
COc1cc(-c2nc(C(=O)Nc3ccc(F)c(F)c3F)nn2-c2ccc(F)c(Cl)c2)cc(OC)c1OC	0.41 µM
COc1cc(-c2nc(C(=O)Nc3cc(F)cc(F)c3)nn2-c2ccc(F)c(Cl)c2)cc(OC)c1OC	0.71 µM
COc1ccc(-n2nc(C(=O)Nc3ccc(F)c(F)c3F)nc2-c2cc(OC)c(OC)c(OC)c2)cc1Cl	0.04 µM

More lines, now with the values ahead:

IC50	Structure (SMILES)
0.1 µM	COc1cc(-c2nc(C(=O)Nc3ccc(OC(F)(F)F)cc3)nn2-c2ccc(F)c(Cl)c2)cc(OC)c1OC
1.49 µM	CCOc1ccc(NC(=O)c2nc(-c3cc(OC)c(OC)c(OC)c3)n(-c3ccc(F)c(Cl)c3)n2)cc1
2.14 µM	COc1ccc(NC(=O)c2nc(-c3cc(OC)c(OC)c(OC)c3)n(-c3ccc(F)c(Cl)c3)n2)cc1Cl
0.68 µM	COc1ccc(-n2nc(C(=O)Nc3ccc(F)c(Cl)c3)nc2-c2cc(OC)c(OC)c(OC)c2)cc1Cl
0.35 µM	COc1ccccc1NC(=O)c1nc(-c2cc(OC)c(OC)c(OC)c2)n(-c2ccc(F)c(Cl)c2)n1

Test system: HepG2
Experiment: Induction of apoptosis in human HepG2 cells assessed as activation of caspase 3 measured after 0.5 to 1 hrs by fluorescence assay relative to control
Format: functional
Settings: not given

Structure (SMILES)	fold change (FC)
COc1ccc(-n2nc(C(=O)Nc3ccc(F)c(F)c3F)nc2-c2cc(OC)c(OC)c(OC)c2)cc1Cl	9
COc1ccccc1NC(=O)c1nc(-c2cc(OC)c(OC)c(OC)c2)n(-c2ccc(F)c(Cl)c2)n1	7
